Measured values published in patent US12421222B2 (AUGUSTINE THERAPEUTICS, priority 2021, dated 2025).

Tested on: acetylated tubulin (Lys40) in HeLa cells
Test: Acetylated α-tubulin measurement in vitro (immunocytochemistry)
Type: cell-based
Conditions: Homo sapiens, 6 hours incubation, acetylated tubulin (Lys40) by immunocytochemistry, read-out: IC50 (Tubulin deacetylation)
In short: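 HeLa cells in serum-free medium treated 6 h at 37 °C (final DMSO 0.1–0.4%), then PFA-fixed and immunostained for acetyl-Lys40 and total α-tubulin; high-content imaging.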

| SMILES | IC50 [nM] |
| --- | --- |
| CCOc1cnc2nc(C)nc(SCC(=O)c3ccc(CNC(=O)CO)s3)c2c1 [Example 160, N-((5-(2-((6-ethoxy-2-methylpyrido[2,3-d]pyrimidin-4-yl)thio)acetyl)thiophen-2-yl)methyl)-2-hydroxyacetamide] | ≤ 100 |
| COc1cnc2nc(C)nc(SCC(=O)c3ccc(CN4CCOCC4=O)s3)c2c1 [Example 161, 4-((5-(2-((6-methoxy-2-methylpyrido[2,3-d]pyrimidin-4-yl)thio)acetyl)thiophen-2-yl)methyl)morpholin-3-one] | 100 to 500 |
| COc1cnc2nc(C)nc(SCC(=O)c3ccc(CN(C)C(=O)CO)s3)c2c1 [Example 162, 2-hydroxy-N-((5-(2-((6-methoxy-2-methylpyrido[2,3-d]pyrimidin-4-yl)thio)acetyl)thiophen-2-yl)methyl)-N-methylacetamide] | 100 to 500 |
| COCC(=O)NCc1ccc(C(=O)CSc2nc(C)nc3ncc(OC)cc23)s1 [Example 163, 2-methoxy-N-((5-(2-((6-methoxy-2-methylpyrido[2,3-d]pyrimidin-4-yl)thio)acetyl)thiophen-2-yl)methyl)acetamide] | 100 to 500 |
| COc1cnc2nc(C(F)F)nc(SCC(=O)c3ccc(CNC(=O)CO)s3)c2c1 [Example 164, N-((5-(2-((2-(difluoromethyl)-6-methoxypyrido[2,3-d]pyrimidin-4-yl)thio)acetyl)thiophen-2-yl)methyl)-2-hydroxyacetamide] | ≤ 100 |
| COc1ccc2nc(C)nc(SCC(=O)c3ccc(CNC(=O)C4CCCO4)s3)c2c1 (centres unmarked) [Example 171, N-((5-(2-((6-methoxy-2-methylquinazolin-4-yl)thio)acetyl)thiophen-2-yl)methyl)tetrahydrofuran-2-carboxamide] | 100 to 500 |
| COc1ccc2nc(C)nc(SCC(=O)c3ccc(CNC(=O)C(F)F)s3)c2c1 [Example 172, 2,2-difluoro-N-((5-(2-((6-methoxy-2-methylquinazolin-4-yl)thio)acetyl)thiophen-2-yl)methyl)acetamide] | 100 to 500 |
| COc1ccc2nc(C)nc(SCC(=O)c3ccc(CNC(=O)CN)s3)c2c1 [Example 177, 2-amino-N-((5-(2-((6-methoxy-2-methylquinazolin-4-yl)thio)acetyl)thiophen-2-yl)methyl)acetamide] | ≤ 100 |
| COc1ccc2nc(C)nc(SCC(=O)c3ccc(CNC(=O)C4CN(C)C4)s3)c2c1 [Example 178, N-((5-(2-((6-methoxy-2-methylquinazolin-4-yl)thio)acetyl)thiophen-2-yl)methyl)-1-methylazetidine-3-carboxamide] | ≤ 100 |
| O=C(CO)NCc1ccc(C(=O)CSc2nccc3ncccc23)s1 [Example 179, N-((5-(2-((1,6-naphthyridin-5-yl)thio)acetyl)thiophen-2-yl)methyl)-2-hydroxyacetamide] | ≤ 100 |
| O=C(CO)NCc1ccc(C(=O)CSc2nccc3ccncc23)s1 [Example 180, N-((5-(2-((2,7-naphthyridin-1-yl)thio)acetyl)thiophen-2-yl)methyl)-2-hydroxyacetamide] | 100 to 500 |
| O=C(CO)NCc1ccc(C(=O)CSc2nccn3cncc23)s1 [Example 181, 2-hydroxy-N-((5-(2-(imidazo[1,5-a]pyrazin-8-ylthio)acetyl)thiophen-2-yl)methyl)acetamide] | 100 to 500 |
| O=C(CO)NCc1ccc(C(=O)CSc2nccn3nccc23)s1 [Example 182, 2-hydroxy-N-((5-(2-(pyrazolo[1,5-a]pyrazin-4-ylthio)acetyl)thiophen-2-yl)methyl)acetamide] | 500 to 1000 |
| CNCC(=O)NCc1ccc(C(=O)CSc2nc(C)nc3ccc(OC)cc23)s1 [Example 183, N-((5-(2-((6-methoxy-2-methylquinazolin-4-yl)thio)acetyl)thiophen-2-yl)methyl)-2-(methylamino)acetamide] | 100 to 500 |
| COc1ccc2nc(C)nc(SCC(=O)c3ccc(CNC(=O)C4CCCN4)s3)c2c1 (centres unmarked) [Example 184, N-((5-(2-((6-methoxy-2-methylquinazolin-4-yl)thio)acetyl)thiophen-2-yl)methyl)pyrrolidine-2-carboxamide] | 100 to 500 |
| COc1ccc2nc(C)nc(SCC(=O)c3ccc(CNC(=O)[C@H](C)O)s3)c2c1 [Example 185, (S)-2-hydroxy-N-((5-(2-((6-methoxy-2-methylquinazolin-4-yl)thio)acetyl)thiophen-2-yl)methyl)propanamide] | ≤ 100 |
| COc1ccc2nc(C)nc(SCC(=O)c3ccc(CNC(=O)[C@@H](C)O)s3)c2c1 [Example 186, (R)-2-hydroxy-N-((5-(2-((6-methoxy-2-methylquinazolin-4-yl)thio)acetyl)thiophen-2-yl)methyl)propanamide] | ≤ 100 |
| COc1ccc2nc(C)nc(SCC(=O)c3ccc(CNC(=O)N(C)C)s3)c2c1 [Example 189, 3-((5-(2-((6-methoxy-2-methylquinazolin-4-yl)thio)acetyl)thiophen-2-yl)methyl)-1,1-dimethylurea] | 100 to 500 |
| COc1cnc2nc(C)nc(SCC(=O)c3ccc(CNC(=O)OC(C)(C)C)s3)c2c1 [Example 190, tert-butyl ((5-(2-((6-methoxy-2-methylpyrido[2,3-d]pyrimidin-4-yl)thio)acetyl)thiophen-2-yl)methyl)carbamate] | 100 to 500 |
| Cc1nnc(SCC(=O)c2ccc(CNC(=O)C(C)(C)C)s2)c2ccccc12 [Example 194, N-((5-(2-((4-methylphthalazin-1-yl)thio)acetyl)thiophen-2-yl)methyl)pivalamide] | 500 to 1000 |
